# Target: T1, FXR-LBD (Farnesoid X Receptor) (Homo sapiens, UniProt Q96RI1)
# T1 construct: Add 5 μl of 4×FXR-LBD to 384 well assay plates; purchased
# T1 sequence (Q96RI1 262-486 limits assumed): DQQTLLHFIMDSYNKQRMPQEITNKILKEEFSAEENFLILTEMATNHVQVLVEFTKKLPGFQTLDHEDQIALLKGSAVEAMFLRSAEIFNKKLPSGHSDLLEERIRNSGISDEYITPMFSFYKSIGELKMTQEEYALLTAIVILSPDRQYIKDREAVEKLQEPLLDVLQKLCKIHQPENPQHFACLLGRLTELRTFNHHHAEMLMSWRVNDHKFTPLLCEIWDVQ
# Test: LanthaScreen TR-FRET Farnesoid X Receptor Coactivator Assay
# Format: biochemical
# Details: TR-FRET ratio 520 nm/495 nm; 10 doses, 3-fold serial dilution; GW4064 as positive control
# Method: The compounds of the present technology may be assayed using the following procedure and will be shown to have FXR binding activity.
# LanthaScreen™ TR-FRET Farnesoid X Receptor Coactivator Assay
# GW4064 as a positive control
# • 1. All of compounds were 3-fold serial diluted from 10 mM stock for 10 doses in DMSO. • 2. Dilute each 100× agonist serial dilution to 2× using Complete Coregulator buffer G. • 3. Transfer 10 μl of each of the 2× agonist serial dilutions to 384 well assay plates. • 4. Add 5 μl of 4×FXR-LBD to 384 well assay plates. • 5. Add 5 μl of 4× peptide/4× antibody solution to 384 well assay plates. • 6. Incubate at room temperature protected from light. • 7. Read the plate at wavelengths of 520 nm and 495 nm on Envision 2104 plate reader. • 8. Calculate the TR-FRET ratio by dividing the emission signal at 520 nm by the emission signal at 495 nm. • 9. Calculate EC50 by fitting % Activity values and log of compound concentrations to nonlinear regression (dose response−variable slope) with Graphpad 5.0.
row,EC50,Structure (SMILES)
1,10 to 100 nM,CO[C@H]1C[C@H](O[C@H]2[C@H](C)O[C@@H](O[C@@H]3/C(C)=C/C[C@@H]4C[C@@H](C[C@]5(C=C[C@H](C)[C@@H](C6CCCCC6)O5)O4)OC(=O)[C@@H]4C=C(C)C(=NO)[C@H]5OC/C(=C\C=C\[C@@H]3C)[C@]54O)C[C@@H]2OC)O[C@@H](C)[C@@H]1O [Compound 31]
2,101 to 300 nM,CO[C@H]1C[C@H](O[C@@H]2/C(C)=C/C[C@@H]3C[C@@H](C[C@]4(C=C[C@H](C)[C@@H](C5CCCCC5)O4)O3)OC(=O)[C@@H]3C=C(C)[C@@H](O)[C@H]4OC/C(=C\C=C\[C@@H]2C)[C@]43O)O[C@@H](C)[C@@H]1O [Compound 32]
3,301 to 1000 nM,CON=C1C(C)=C[C@H]2C(=O)O[C@H]3C[C@@H](C/C=C(\C)[C@@H](O[C@H]4C[C@H](OC)[C@@H](O)[C@H](C)O4)[C@@H](C)/C=C/C=C4\CO[C@H]1[C@@]42O)O[C@@]1(C=C[C@H](C)[C@@H](C2CCCCC2)O1)C3 [Compound 35]

row,Structure (SMILES),EC50
1,CO[C@H]1C[C@H](O[C@@H]2/C(C)=C/C[C@@H]3C[C@@H](C[C@]4(C=C[C@H](C)[C@@H](C5CCCCC5)O4)O3)OC(=O)[C@@H]3C=C(C)C(=NO)[C@H]4OC/C(=C\C=C\[C@@H]2C)[C@]43O)O[C@@H](C)[C@@H]1O [Compound 33],10 to 100 nM
